Laboratory results reported in publication PMC8896928, “Preparation, Characterization, and Preliminary Imaging Study of [^188Re]Re-Ibandronate as a Novel Theranostic Radiopharmaceutical for Bone Metastasis” (Contrast Media & Molecular Imaging, 2022).
Read-outs that look alike come from different tables or passages of the source.

Assays:
[1] = test system: nude mice of bone metastasis model (PC-3, MDA-MB-231, left tibia); details: for ROI ratio of model bone/contralateral bone (mean): bone imaging
Protocol: (§1) The nude mice of the bone metastasis model were established by tibial bone marrow injection. The specific methods were as follows: 25 μL of prostate cancer PC-3 and breast cancer MDA-MB-231 cell culture medium were injected into the left tibial bone marrow cavity of healthy male and female nude mice, respectively. At approximately 3-4 weeks after inoculation, they were scanned by microcomputed tomography (CT, SIEMENS InveonTM, Munich, Germany) to determine the condition of the model. […] Bone metastases were initially evaluated by CT and confirmed by pathology after the completion of related studies.
The nude mice were injected with [^18F]F-sodium fluoride (NaF), [^99mTc]Tc-methylene diphosphonate (MDP), and [^188Re]Re-IBA at the first, second, and fifth days, respectively, for bone imaging. […]/computed tomography (PET/CT) acquisition equipment was SIEMENS InveonTM. Single-photon emission computed tomography/computed tomography (SPECT/CT) acquisition equipment was GE SPECT, pinhole collimator.

Kunming mice = test system: Kunming mice
Protocol: Sixteen Kunming mice were randomly divided into four groups (equal number of males and females): normal control group and low-, middle-, and high-dose [^188Re]Re-IBA groups. The control group was injected with 0.9% NaCl, and the experimental groups were injected with [^188Re]Re-IBA solution of 3.7 MBq, 18.5 MBq, and 37 MBq, respectively. The body weight and general condition of the mice in each group were measured. After 4 weeks, the blood of the mice in each group was drawn for routine blood examination and liver and kidney function. A pathological examination of important tissue and organs was performed.
SPSS 26.0 was used for statistical analysis, and the quantitative data were expressed as mean ± standard deviation ( χ¯ ± s). In the toxicity test, repeated-measures analysis of variance was used to compare the body weight of mice in each group. P < 0.05 was considered statistically significant.

[2] = test system: nude mice of bone metastasis model (PC-3, MDA-MB-231, left tibia)
Protocol: as §1
Ten PC-3 and ten MDA-MB-231 nude mice with bone metastasis were randomly divided into five groups. The mice were sacrificed by CO2 asphyxiation at 1 h, 3 h, 6 h, 24 h, and 48 h. The important tissue and organ samples were collected for the biodistribution study.

[3] = Bone imaging of New Zealand rabbits (SPECT); details: New Zealand rabbit, 100 MBq
Protocol: The New Zealand rabbit was anesthetized by intraperitoneal injection of 2% pentobarbital sodium (40 mg/kg). Then, 100 MBq [^188Re]Re-IBA was injected. Bone imaging was performed at different time points (acquisition equipment: American GE Infinia T4 double probe single-photon emission computed tomography, high energy collimator; scanning parameters: energy peak: 155 keV, posture: supine position, matrix: 128 × 128, and window width: ±10%). Following image acquisition, the images were processed by using the software of the postprocessing workstation.

CCCCCN(C)CCC1(O)P(=O)(O)[O][188Re]2([OH])([OH])([O]P1(=O)O)[O]P(=O)(O)C(O)(CCN(C)CCCCC)P(=O)(O)[O]2 (stereo not drawn) [[^188Re]Re-IBA]
Bone imaging, uptake in the model side vs control side ([1]; 1–3 h after injection, concentration mainly in surrounding soft tissue): higher than that of the control side | ROI ratio of model bone/contralateral bone (mean) ([1]; 6 h): 1.245 | ROI ratio of model bone/contralateral bone (mean) ([1]; 16 h): 1.633 | ROI ratio of model bone/contralateral bone (mean) ([1]; 32 h): 1.529 | Pathology of important tissues and organs vs normal control (Kunming mice; 3.7, 18.5, 37 MBq, 4 weeks): no abnormal pathological changes | Routine blood and liver and kidney function examination (mean values) (Kunming mice; 3.7, 18.5, 37 MBq, 4 weeks): within the normal reference range | Adverse reactions (Kunming mice; 3.7, 18.5, 37 MBq, within 4 weeks): no adverse reactions | Body weight vs other groups (Kunming mice; high-dose group 37 MBq, 4 weeks): inhibited the weight gain of mice to a certain extent | Body weight vs control group (Kunming mice; low-dose group 3.7 MBq, 4 weeks): no significant difference in weight | Body weight vs control group (Kunming mice; medium-dose group 18.5 MBq, 4 weeks): no significant difference in weight | %ID/g Blood ([2]; 1 h): 1.704 ± 0.348 %ID/g | %ID/g Brain ([2]; 1 h): 0.098 ± 0.046 %ID/g | %ID/g CB (contralateral bone) ([2]; 1 h): 9.331 ± 0.541 %ID/g | %ID/g CS (contralateral muscle) ([2]; 1 h): 0.578 ± 0.043 %ID/g | %ID/g Gonad ([2]; 1 h): 0.439 ± 0.162 %ID/g | %ID/g Heart ([2]; 1 h): 0.595 ± 0.099 %ID/g | %ID/g Kidney ([2]; 1 h): 6.004 ± 0.523 %ID/g | %ID/g Liver ([2]; 1 h): 1.236 ± 0.219 %ID/g | %ID/g Lung ([2]; 1 h): 1.135 ± 0.209 %ID/g | %ID/g MB (model bone) ([2]; 1 h): 8.329 ± 0.329 %ID/g | %ID/g Small intestine ([2]; 1 h): 0.718 ± 0.073 %ID/g | %ID/g Spleen ([2]; 1 h): 0.530 ± 0.124 %ID/g | %ID/g Stomach ([2]; 1 h): 3.056 ± 0.321 %ID/g | %ID/g Thyroid gland ([2]; 1 h): 0.625 ± 0.309 %ID/g | CB/CS ratio ([2]; 1 h): 16.144 | CB/heart ratio ([2]; 1 h): 15.682 | CB/liver ratio ([2]; 1 h): 7.549 | MB/CB ratio ([2]; 1 h): 0.893 | MB/CS ratio ([2]; 1 h): 14.411 | MB/heart ratio ([2]; 1 h): 14.003 | MB/liver ratio ([2]; 1 h): 6.738 | %ID/g Blood ([2]; 3 h): 0.531 ± 0.092 %ID/g | %ID/g Brain ([2]; 3 h): 0.082 ± 0.017 %ID/g | %ID/g CB (contralateral bone) ([2]; 3 h): 7.717 ± 4.349 %ID/g | %ID/g CS (contralateral muscle) ([2]; 3 h): 0.524 ± 0.172 %ID/g | %ID/g Gonad ([2]; 3 h): 0.231 ± 0.068 %ID/g | %ID/g Heart ([2]; 3 h): 0.326 ± 0.175 %ID/g | %ID/g Kidney ([2]; 3 h): 2.591 ± 1.120 %ID/g | %ID/g Liver ([2]; 3 h): 0.431 ± 0.312 %ID/g | %ID/g Lung ([2]; 3 h): 0.298 ± 0.250 %ID/g | %ID/g MB (model bone) ([2]; 3 h): 5.922 ± 2.126 %ID/g | %ID/g Small intestine ([2]; 3 h): 0.404 ± 0.047 %ID/g | %ID/g Spleen ([2]; 3 h): 0.227 ± 0.141 %ID/g | %ID/g Stomach ([2]; 3 h): 2.064 ± 0.207 %ID/g | %ID/g Thyroid gland ([2]; 3 h): 0.282 ± 0.149 %ID/g | CB/CS ratio ([2]; 3 h): 14.731 | CB/heart ratio ([2]; 3 h): 23.637 | CB/liver ratio ([2]; 3 h): 17.896 | MB/CB ratio ([2]; 3 h): 0.767 | MB/CS ratio ([2]; 3 h): 11.305 | MB/heart ratio ([2]; 3 h): 18.139 | MB/liver ratio ([2]; 3 h): 13.734 | %ID/g Blood ([2]; 6 h): 0.302 ± 0.092 %ID/g | %ID/g Brain ([2]; 6 h): 0.042 ± 0.042 %ID/g | %ID/g CB (contralateral bone) ([2]; 6 h): 7.662 ± 2.934 %ID/g | %ID/g CS (contralateral muscle) ([2]; 6 h): 0.153 ± 0.083 %ID/g | %ID/g Gonad ([2]; 6 h): 0.106 ± 0.022 %ID/g | %ID/g Heart ([2]; 6 h): 0.183 ± 0.097 %ID/g | %ID/g Kidney ([2]; 6 h): 2.587 ± 0.126 %ID/g | %ID/g Liver ([2]; 6 h): 0.368 ± 0.054 %ID/g | %ID/g Lung ([2]; 6 h): 0.257 ± 0.030 %ID/g | %ID/g MB (model bone) ([2]; 6 h): 8.417 ± 1.820 %ID/g | %ID/g Small intestine ([2]; 6 h): 0.242 ± 0.118 %ID/g | %ID/g Spleen ([2]; 6 h): 0.176 ± 0.029 %ID/g | %ID/g Stomach ([2]; 6 h): 1.176 ± 0.190 %ID/g | %ID/g Thyroid gland ([2]; 6 h): 0.354 ± 0.217 %ID/g | CB/CS ratio ([2]; 6 h): 50.044 | CB/heart ratio ([2]; 6 h): 41.876 | CB/liver ratio ([2]; 6 h): 20.818 | MB/CB ratio ([2]; 6 h): 1.099 | MB/CS ratio ([2]; 6 h): 54.970 | MB/heart ratio ([2]; 6 h): 45.999 | MB/liver ratio ([2]; 6 h): 22.867 | %ID/g Blood ([2]; 24 h): 0.045 ± 0.020 %ID/g | %ID/g Brain ([2]; 24 h): 0.037 ± 0.020 %ID/g | %ID/g CB (contralateral bone) ([2]; 24 h): 4.413 ± 2.225 %ID/g | %ID/g CS (contralateral muscle) ([2]; 24 h): 0.081 ± 0.050 %ID/g | %ID/g Gonad ([2]; 24 h): 0.069 ± 0.018 %ID/g | %ID/g Heart ([2]; 24 h): 0.052 ± 0.027 %ID/g | %ID/g Kidney ([2]; 24 h): 0.640 ± 0.175 %ID/g | %ID/g Liver ([2]; 24 h): 0.089 ± 0.027 %ID/g | %ID/g Lung ([2]; 24 h): 0.101 ± 0.038 %ID/g | %ID/g MB (model bone) ([2]; 24 h): 6.403 ± 0.247 %ID/g | %ID/g Small intestine ([2]; 24 h): 0.049 ± 0.003 %ID/g | %ID/g Spleen ([2]; 24 h): 0.066 ± 0.024 %ID/g | %ID/g Stomach ([2]; 24 h): 0.192 ± 0.092 %ID/g | %ID/g Thyroid gland ([2]; 24 h): 0.082 ± 0.030 %ID/g | CB/CS ratio ([2]; 24 h): 54.620 | CB/heart ratio ([2]; 24 h): 85.157 | CB/liver ratio ([2]; 24 h): 49.848 | MB/CB ratio ([2]; 24 h): 1.451 | MB/CS ratio ([2]; 24 h): 79.255 | MB/heart ratio ([2]; 24 h): 123.563 | MB/liver ratio ([2]; 24 h): 72.330 | %ID/g Blood ([2]; 48 h): 0.021 ± 0.008 %ID/g | %ID/g Brain ([2]; 48 h): 0.021 ± 0.009 %ID/g | %ID/g CB (contralateral bone) ([2]; 48 h): 4.737 ± 0.863 %ID/g | %ID/g CS (contralateral muscle) ([2]; 48 h): 0.041 ± 0.022 %ID/g | %ID/g Gonad ([2]; 48 h): 0.028 ± 0.001 %ID/g | %ID/g Heart ([2]; 48 h): 0.035 ± 0.013 %ID/g | %ID/g Kidney ([2]; 48 h): 0.121 ± 0.034 %ID/g | %ID/g Liver ([2]; 48 h): 0.044 ± 0.013 %ID/g | %ID/g Lung ([2]; 48 h): 0.047 ± 0.005 %ID/g | %ID/g MB (model bone) ([2]; 48 h): 6.503 ± 0.010 %ID/g | %ID/g Small intestine ([2]; 48 h): 0.030 ± 0.018 %ID/g | %ID/g Spleen ([2]; 48 h): 0.022 ± 0.013 %ID/g | %ID/g Stomach ([2]; 48 h): 0.027 ± 0.019 %ID/g | %ID/g Thyroid gland ([2]; 48 h): 0.020 ± 0.010 %ID/g | CB/CS ratio ([2]; 48 h): 115.161 | CB/heart ratio ([2]; 48 h): 133.599 | CB/liver ratio ([2]; 48 h): 106.617 | MB/CB ratio ([2]; 48 h): 1.373 | MB/CS ratio ([2]; 48 h): 158.088 | MB/heart ratio ([2]; 48 h): 183.399 | MB/liver ratio ([2]; 48 h): 146.359 | Elimination route of most of the activity [3]: through the kidneys | Bone imaging, tracer distribution ([3]; 20 min after the injection): obvious accumulation in bones and mild tracer uptake in soft tissue
